Data as given in publication PMC9485059 (iScience, 2022).

Tests used:
BAK [1] = molecular target: T1, BAK (Homo sapiens, UniProt Q16611); experiment: ligand-based 1D-NMR, […] 2D-NMR titration, competitive TR-FRET, nanoDSF; type: binding
T1 sequence (Q16611 15-186): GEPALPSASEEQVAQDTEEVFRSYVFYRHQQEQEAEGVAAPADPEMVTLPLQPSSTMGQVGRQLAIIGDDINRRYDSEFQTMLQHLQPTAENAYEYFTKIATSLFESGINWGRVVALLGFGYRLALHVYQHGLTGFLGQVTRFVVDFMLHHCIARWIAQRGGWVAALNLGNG

BAK [2] = molecular target: T1, BAK; experiment: ligand-based 1D-NMR; type: binding

| SMILES | IC50 (BAK [1]) | IC50 (BAK [2]) |
| --- | --- | --- |
| Cc1ccc(C)c2sc(N)nc12 [A3] | 1970 µM |  |
| Cc1ccc(Cl)c2sc(N)nc12 [H6, SJ572946] |  | 570 µM |
